# Source: EP4763845A1, “CYANO AROMATIC RING DERIVATIVE AND PHARMACEUTICAL USE THEREOF” (Haisco Pharmaceutical Group Co., Ltd., priority 2023, dated 2025)
# Tests used:
# hERG potassium channel = biological target: T1, hERG potassium channel (Homo sapiens, UniProt Q12809); assay: hERG potassium ion channel test (manual patch-clamp, CHO cells); assay type: cell-based; settings: chinese hamster; inhibitory activity against hERG potassium channel current, CHO cells, whole cell patch-clamp; read-out: IC50
# T1 construct: expressed in transfected cells; host or cells: CHO cells stably expressing hERG
# T1 sequence (Q12809 whole entry): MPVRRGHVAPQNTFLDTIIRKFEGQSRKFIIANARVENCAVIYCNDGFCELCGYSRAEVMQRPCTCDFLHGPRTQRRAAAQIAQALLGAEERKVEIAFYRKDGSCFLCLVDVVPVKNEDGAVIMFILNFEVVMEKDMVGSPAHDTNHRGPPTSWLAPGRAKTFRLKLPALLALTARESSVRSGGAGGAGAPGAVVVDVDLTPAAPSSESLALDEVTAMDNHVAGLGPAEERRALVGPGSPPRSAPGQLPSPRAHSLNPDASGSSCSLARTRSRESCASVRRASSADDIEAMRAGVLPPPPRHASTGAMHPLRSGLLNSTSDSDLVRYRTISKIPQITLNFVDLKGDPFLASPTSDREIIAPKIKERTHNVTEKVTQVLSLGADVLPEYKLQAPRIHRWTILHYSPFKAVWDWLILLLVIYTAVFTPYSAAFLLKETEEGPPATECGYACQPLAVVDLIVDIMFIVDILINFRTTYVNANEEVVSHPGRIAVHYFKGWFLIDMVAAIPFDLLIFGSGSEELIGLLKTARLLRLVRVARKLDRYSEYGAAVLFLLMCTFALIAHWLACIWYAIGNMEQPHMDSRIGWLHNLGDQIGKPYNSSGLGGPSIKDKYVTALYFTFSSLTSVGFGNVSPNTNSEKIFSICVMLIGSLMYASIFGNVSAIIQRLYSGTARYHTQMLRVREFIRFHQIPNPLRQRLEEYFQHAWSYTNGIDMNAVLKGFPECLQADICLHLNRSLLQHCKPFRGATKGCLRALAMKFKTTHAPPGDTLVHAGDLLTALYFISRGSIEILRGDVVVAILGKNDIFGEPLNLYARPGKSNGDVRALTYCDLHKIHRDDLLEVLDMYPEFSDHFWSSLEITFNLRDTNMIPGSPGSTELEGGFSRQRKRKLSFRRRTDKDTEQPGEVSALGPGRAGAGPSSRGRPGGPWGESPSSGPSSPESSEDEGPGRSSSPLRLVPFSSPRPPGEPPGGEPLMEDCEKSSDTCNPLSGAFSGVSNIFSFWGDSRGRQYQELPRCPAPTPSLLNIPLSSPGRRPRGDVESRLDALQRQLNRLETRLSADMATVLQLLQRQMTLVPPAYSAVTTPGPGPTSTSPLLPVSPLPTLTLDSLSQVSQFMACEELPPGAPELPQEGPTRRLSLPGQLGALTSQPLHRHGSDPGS
# [1] = tested on: Human CD34+ Hematopoietic stem cells; assay: Human CD34+ hematopoietic stem cell proliferation inhibition experiment; assay type: cell-based; settings: 168 h, inhibitory activity against the proliferation of CD34+ hematopoietic stem cells, 7 days
# Experimental: Human CD34+ Hematopoietic stem cells (TPCS, Cat.hmPB34-P-2CW) are CD34-positive stem cells obtained from human PBMCs through immunomagnetic bead sorting. The culture conditions are as follows: DPBS (Gibco, Cat.14190-144) +StemSpan SFEM II ([…], Cat.9655) +1X StemSpan CD34+ Expansion Supplement ([…], Cat.2691). First, 40 nL of DMSO, the positive reference compound Talazoparib, or the test compounds were respectively added to a 384-well plate (Corning, Cat. 3764). Then, a cell suspension was added at 400 cells per well in 40 µL of medium, resulting in final concentrations of 0.1% DMSO, 3 µM Talazoparib, or various concentrations of the compounds in each well. The plate was centrifuged at room temperature at 1000 rpm for 1 minute, followed by incubation for 7 days in a 37°C, 5% CO2 incubator. Following incubation, 20 µL of CellTiter-Glo Reagent (Promega, Cat. G7573) was directly added to each well, and the plate was centrifuged at room temperature at 1000 rpm for 1 minute, followed by incubation for 20 minutes in the dark. Following incubation, the chemiluminescent signal (CFU) was read and recorded using an Envision multimode microplate reader (PerkinElmer, Cat. 2104). The cell proliferation inhibition rate at various compound concentrations was calculated according to Equation (3), where CFUhigh control represents the average signal value of the DMSO group, CFUlow control represents the average signal value of the Talazoparib group, and CFUcompound represents the average signal value of the compound-treated group. The processed data obtained from Equation (3) were analysed using XLfit or GraphPad Prism software, and a four-parameter curve fitting model was applied to calculate the compound concentration corresponding to a 50% inhibition rate, i.e., the IC50 value. Inhibition% = (CFUhigh control−CFUcompound)/(CFUhigh control−CFUlow control) × 100% [formula]
# [2] = Pharmacokinetic test in rats; assay type: in vivo, SD rats; settings: i.g. (5 mg/kg), vehicle 5% DMSO+5% Solutol+10% PEG400+80% (20% SBE-β-CD)
# Experimental: Experimental objective: In this experiment, a single dose of the test compound was administered to SD rats via intravenous administration and intragastric gavage, and the concentration of the test compound in plasma of the rats was measured to evaluate the pharmacokinetic profile of the test compound in the rats.
# Experimental animals: Male SD rats, 200-220 g, 6 rats/compound, purchased from Chengdu Ddossy Experimental Animals Co., Ltd.
# Experimental method: On the day of the experiment, 6 SD rats were randomly grouped according to their body weights. The animals were fasted with water available for 12 to 14 h one day before the administration, and were fed 4 h after the administration. Table 3 Administration information of pharmacokinetic test in rats
# Sampling: Before and after the administration, 0.1 mL of blood was taken from the orbits under isoflurane anaesthesia, and placed in an EDTAK2 centrifuge tube. Centrifugation was carried out at 5000 rpm at 4°C for 10 min, and the plasma was collected.
# The plasma collection time points for IV&PO groups were 0, 5 min, 15 min, 30 min, 1 h, 2 h, 4 h, 7 h, 24 h, and 48 h.
# Before analysis and detection, all samples were stored at -60°C. The samples were analysed quantitatively by LC-MS/MS. Table 4 Pharmacokinetic parameters of compounds of the present invention in plasma of rats
smiles,measurement,setting,value
CC1(C)[C@H](NC(=O)c2ccc(N3CCC(CN4CCN5c6cc(F)c(C7CCC(=O)NC7=O)cc6CC[C@H]5C4)CC3)cc2)C(C)(C)[C@H]1Oc1ccc(C#N)c2ncccc12 (stereo partly shown) [Compound 31],IC50,hERG potassium channel,> 40 µM
same,IC50,[1],> 10 µM
same,F,[2],49.1+12%
same,AUC(0-t),"[2]; rat, plasma, po",5430 ± 1360 ng·h/mL
